The values that follow come from patent publication US20170342025A1, “ANTIMICROBIAL COMPOUNDS, COMPOSITIONS AND METHODS” (Swansea University, priority 2014, published 2017).

For experiment [1], the system named is Escherichia coli (strain JM109). Kind of experiment: MIC determination against Escherichia coli (Andrews protocol). Format: cell-based. As to conditions: Escherichia coli, read-out: MIC E. coli. How it is done: (§1) Minimum Inhibitory Concentrations (MICs) for the compounds prepared were determined against Escherichia coli (strain JM109) and Staphylococcus aureus (strain 9518) using the protocols described by Andrews (J. Antimicrob. Chemother., 2001, 48, Suppl. S1, 5-16).

Experiment [2] concerns Staphylococcus aureus (strain 9518). The experiment can be described thus: MIC determination against Staphylococcus aureus (Andrews protocol). Format: cell-based. Particulars: Staphylococcus aureus, read-out: MIC S. aureus. The method, then: as §1
Where [3] appears, read: Staphylococcus aureus strain 9518.

Where two headings read alike, the source gives them in different places.

Regarding `N=C(N)NCc1cccc(OCc2ccccc2)c1.O=C(O)C(F)(F)F` [Compound 4a, 1-{[3-(benzyloxy)phenyl]methyl}guanidine 2,2,2-trifluoroacetate], the MIC (usually the lowest concentration that inhibits growth of the organism) was greater than 100 µg/mL in experiment [1] and 1 to 10 µg/mL in experiment [2].

For `N=C(N)NCc1cccc(OCc2ccc(Cl)cc2)c1.O=C(O)C(F)(F)F` [Compound 4b, 1-({3-[(4-chlorophenyl)methoxy]phenyl}methyl)guanidine 2,2,2-trifluoroacetate], the MIC in experiment [1] and in experiment [2] was 1 to 10 µg/mL in each case.

As for `N=C(N)NCc1cccc(OCc2cccc(Cl)c2)c1.O=C(O)C(F)(F)F` [Compound 4c, 1-({3-[(3-chlorophenyl)methoxy]phenyl}methyl)guanidine 2,2,2-trifluoroacetate], the MIC in experiment [1] and in experiment [2] was 10 to 32 µg/mL throughout.

As for `N=C(N)NCc1cccc(OCc2ccc(Cl)cc2Cl)c1.O=C(O)C(F)(F)F` [Compound 4d, 1-({3-[(2,4-dichlorophenyl)methoxy]phenyl}methyl)guanidine 2,2,2-trifluoroacetate], the MIC in experiment [1] was 1 to 10 µg/mL; in experiment [2] it was greater than 100 µg/mL.

As for `N=C(N)NCc1cccc(OCc2ccc(Cl)c(Cl)c2)c1.O=C(O)C(F)(F)F` [Compound 4e, 1-({3-[(3,4-dichlorophenyl)methoxy]phenyl}methyl)guanidine 2,2,2-trifluoroacetate], the results for the MIC in experiment [1] and in experiment [2] were 10 to 32 µg/mL and 1 to 10 µg/mL, respectively.

In the case of `N=C(N)NCc1cccc(OCc2cc(Cl)ccc2Cl)c1.O=C(O)C(F)(F)F` [Compound 4f, 1-({3-[(2,5-dichlorophenyl)methoxy]phenyl}methyl)guanidine 2,2,2-trifluoroacetate], the minimum inhibitory concentration (MIC) in experiment [1] is 10 to 32 µg/mL; in experiment [2], 1 to 10 µg/mL.

With `N=C(N)NCc1cccc(OCc2cccc(Cl)c2Cl)c1.O=C(O)C(F)(F)F` [Compound 4g, 1-({3-[(2,3-dichlorophenyl)methoxy]phenyl}methyl)guanidine 2,2,2-trifluoroacetate], the MIC in experiment [1] and in experiment [2] was 10 to 32 µg/mL each time.

With `N=C(N)NCc1cccc(OCc2ccc(C(F)(F)F)cc2)c1.O=C(O)C(F)(F)F` [Compound 4h, 1-[(3-{[4-(trifluoromethyl)phenyl]methoxy}phenyl)methyl]guanidine 2,2,2-trifluoroacetate], the MIC in experiment [1] and in experiment [2] was 1 to 10 µg/mL throughout.

As for `N=C(N)NCc1cccc(OCc2cccc(C(F)(F)F)c2)c1.O=C(O)C(F)(F)F` [Compound 4i, 1-[(3-{[3-(trifluoromethyl)phenyl]methoxy}phenyl)methyl]guanidine 2,2,2-trifluoroacetate], the MIC in experiment [1] and in experiment [2] was 1 to 10 µg/mL throughout.

Take `N=C(N)NCc1cccc(OCc2ccc(Br)cc2)c1.O=C(O)C(F)(F)F` [Compound 4j, 1-({3-[(4-bromophenyl)methoxy]phenyl}methyl)guanidine 2,2,2-trifluoroacetate]: the MIC in experiment [1] was 1 to 10 µg/mL; in experiment [2], 10 to 32 µg/mL.

On to `N=C(N)NCc1cccc(OCc2ccc(F)cc2)c1.O=C(O)C(F)(F)F` [Compound 4k, 1-({3-[(4-fluorophenyl)methoxy]phenyl}methyl)guanidine 2,2,2-trifluoroacetate], for which the MIC in experiment [1] was 10 to 32 µg/mL; in experiment [2] it was 32 to 100 µg/mL.

On to `COc1ccc(CNC(=N)N)cc1OCc1cccc(Cl)c1.O=C(O)C(F)(F)F` [Compound 4m, 1-({3-[(3-chlorophenyl)methoxy]-4-methoxyphenyl}methyl)guanidine 2,2,2-trifluoroacetate], for which the MIC in experiment [1] and in experiment [2] was greater than 100 µg/mL in each case.

As for `COc1ccc(CNC(=N)N)cc1OCc1ccc(Cl)cc1.O=C(O)C(F)(F)F` [Compound 4n, 1-({3-[(4-chlorophenyl)methoxy]-4-methoxyphenyl}methyl)guanidine 2,2,2-trifluoroacetate], the MIC is greater than 100 µg/mL in experiment [1] and 32 to 100 µg/mL in experiment [2].

`N=C(N)NCc1c(F)ccc(OCc2cccc(Cl)c2Cl)c1F.O=C(O)C(F)(F)F` [Compound 4o, 1-({3-[(2,3-dichlorophenyl)methoxy]-2,6-difluorophenyl}methyl)guanidine 2,2,2-trifluoroacetate]: the MIC in experiment [1] and in experiment [2] was 1 to 10 µg/mL each time.

Regarding `N=C(N)NCc1c(F)ccc(OCc2cccc(C(F)(F)F)c2)c1F.O=C(O)C(F)(F)F` [Compound 4p, 1-[(2,6-difluoro-3-{[3-(trifluoromethyl)phenyl]methoxy}phenyl)methyl]guanidine 2,2,2-trifluoroacetate], the MIC in experiment [1] and in experiment [2] was 1 to 10 µg/mL each time.

On to `COCCN(Cc1cccc(OCc2cccc(Cl)c2Cl)c1)C(=N)N.O=C(O)C(F)(F)F` [Compound 9b, 1-({3-[(2,3-dichlorophenyl)methoxy]phenyl}methyl)-1-(2-methoxyethyl) guanidine 2,2,2-trifluoroacetate], for which the MIC in experiment [1] (Escherichia coli strain JM109) and in experiment [2] (setting [3]) was 10 to 32 µg/mL each time.

Take `CN(Cc1cccc(OCc2cccc(Cl)c2Cl)c1)C(=N)N.Cl` [Compound 10a, 1-({3-[(2,3-dichlorophenyl)methoxy]phenyl}methyl)-1-methylguanidine hydrochloride]: the MIC lay in the range of 32 to 100 µg/mL in experiment [1] (Escherichia coli strain JM109) and 10 to 32 µg/mL in experiment [2] (setting [3]).

Take `CNC(=N)NCc1cccc(OCc2cccc(Cl)c2Cl)c1.O=C(O)C(F)(F)F` [Compound 15, 3-({3-[(2,3-dichlorophenyl)methoxy]phenyl}methyl)-1-methylguanidine 2,2,2-trifluoroacetate]: the MIC in experiment [1] (Escherichia coli strain JM109) and in experiment [2] (setting [3]) was 10 to 32 µg/mL in each case.

Turning to `N=C(N)NCc1ccc(OCc2ccccc2)cc1.O=C(O)C(F)(F)F` [Compound 19a, 1-(4-(benzyloxy)benzyl)guanidine 2,2,2-trifluoroacetate], the MIC is greater than 100 µg/mL in experiment [1] (Escherichia coli strain JM109) and 10 to 32 µg/mL in experiment [2] (setting [3]).

For the compound `N=C(N)NCc1ccc(OCc2ccc(Cl)cc2)cc1.O=C(O)C(F)(F)F` [Compound 19b, 1-(4-((4-chlorobenzyl)oxy)benzyl)guanidine 2,2,2-trifluoroacetate], the MIC in experiment [1] (Escherichia coli strain JM109) is greater than 100 µg/mL; in experiment [2] (setting [3]) it was 32 to 100 µg/mL.

Take `N=C(N)NCc1ccc(OCc2cccc(Cl)c2)cc1.O=C(O)C(F)(F)F` [Compound 19c, 1-(4-((3-chlorobenzyl)oxy)benzyl)guanidine 2,2,2-trifluoroacetate]: the minimum inhibitory concentration (MIC) in experiment [1] (Escherichia coli strain JM109) is greater than 100 µg/mL; in experiment [2] (setting [3]), 10 to 32 µg/mL.

As to `N=C(N)NCc1ccc(OCc2ccc(Cl)c(Cl)c2)cc1.O=C(O)C(F)(F)F` [Compound 19d, 1-(4-((3,4-dichlorobenzyl)oxy)benzyl)guanidine 2,2,2-trifluoroacetate], the results for the MIC in experiment [1] (Escherichia coli strain JM109) and in experiment [2] (setting [3]) were 10 to 32 µg/mL and 1 to 10 µg/mL, respectively.

In the case of `N=C(N)Nc1ccc(OCc2ccccc2)cc1.O=C(O)C(F)(F)F` [Compound 23a, 1-[4-(benzyloxy)phenyl]guanidine 2,2,2-trifluoroacetate], the minimal inhibitory concentration (MIC) in experiment [1] (Escherichia coli strain JM109) was greater than 100 µg/mL; in experiment [2] (setting [3]), 1 to 10 µg/mL.

For the compound `N=C(N)Nc1ccc(OCc2ccc(Cl)cc2)cc1.O=C(O)C(F)(F)F` [Compound 23b, 1-{4-[(4-chlorophenyl)methoxy]phenyl}guanidine 2,2,2-trifluoroacetate], the MIC in experiment [1] (Escherichia coli strain JM109) and in experiment [2] (setting [3]) was greater than 100 µg/mL in each case.

In the case of `N=C(N)Nc1ccc(OCc2cccc(Cl)c2)cc1.O=C(O)C(F)(F)F` [Compound 23c, 1-{4-[(3-chlorophenyl)methoxy]phenyl}guanidine 2,2,2-trifluoroacetate], the values for the MIC in experiment [1] (Escherichia coli strain JM109) and in experiment [2] (setting [3]) were greater than 100 µg/mL and 10 to 32 µg/mL, respectively.

Regarding `N=C(N)N1CCc2ccc(Br)cc2C1.O=C(O)C(F)(F)F` [Compound 26, 7-bromo-1,2,3,4-tetrahydroisoquinoline-2-carboximidamid 2,2,2-trifluoroacetate], the MIC in experiment [1] (Escherichia coli strain JM109) and in experiment [2] (setting [3]) was greater than 100 µg/mL in each case.

`CC(C)(C)OC(=O)NC(=N)N1CCc2ccc(-c3ccc(C(C)(C)C)cc3)cc2C1.O=C(O)C(F)(F)F` [Compound 28, tert-butyl N-[7-(4-tert-butylphenyl)-1,2,3,4-tetrahydroisoquinoline-2-carboximidoyl]carbamate 2,2,2-trifluoroacetate]: the MIC in experiment [1] (Escherichia coli strain JM109) is greater than 100 µg/mL; in experiment [2] (setting [3]) it was 32 to 100 µg/mL.

`N=C(N)N1CCc2ccc(OCc3cccc(Cl)c3Cl)cc2C1.O=C(O)C(F)(F)F` [Compound 33, 7-[(2,3-dichlorophenyl)methoxy]-1,2,3,4-tetrahydroisoquinoline-2-carboximidamide 2,2,2-trifluoroacetate]: the MIC in experiment [1] (Escherichia coli strain JM109) and in experiment [2] (setting [3]) was 1 to 10 µg/mL throughout.

Regarding `Cl.N=C(N)N1CCc2c(cccc2OCc2cccc(Cl)c2Cl)C1` [Compound 38, 5-[(2,3-dichlorophenyl)methoxy]-1,2,3,4-tetrahydroisoquinoline-2-carboximidamide hydrochloride], the minimal inhibitory concentration (MIC) in experiment [1] (Escherichia coli strain JM109) and in experiment [2] (setting [3]) was 10 to 32 µg/mL throughout.

In the case of `N=C(N)NOCc1cccc(-c2ccccc2)c1.O=C(O)C(F)(F)F` [Compound 41a, 1-[(3-phenylphenyl)methoxy]guanidine 2,2,2-trifluoroacetate], the minimum inhibitory concentration (MIC) in experiment [1] (Escherichia coli strain JM109) and in experiment [2] (setting [3]) was greater than 100 µg/mL in each case.

With `N=C(N)NOCc1cccc(Oc2ccccc2)c1.O=C(O)C(F)(F)F` [Compound 41b, 1-[(3-phenoxyphenyl)methoxy]guanidine 2,2,2-trifluoroacetate], the minimal inhibitory concentration (MIC) in experiment [1] (Escherichia coli strain JM109) and in experiment [2] (setting [3]) was greater than 100 µg/mL throughout.

Consider `N=C(N)N1CCN(c2ccc(Cl)cc2)CC1.O=C(O)C(F)(F)F.O=C(O)C(F)(F)F` [Compound 44a, 4-(4-chlorophenyl)piperazine-1-carboximidamide bis-(2,2,2-trifluoroacetate)], for which the MIC in experiment [1] (Escherichia coli strain JM109) and in experiment [2] (setting [3]) was greater than 100 µg/mL each time.

For the compound `COc1cccc(N2CCN(C(=N)N)CC2)c1.O=C(O)C(F)(F)F.O=C(O)C(F)(F)F` [Compound 44b, 4-(3-methoxyphenyl)piperazine-1-carboximidamide bis-(2,2,2-trifluoroacetate)], the minimum inhibitory concentration (MIC) in experiment [1] (Escherichia coli strain JM109) and in experiment [2] (setting [3]) was greater than 100 µg/mL each time.

In the case of `N=C(N)NC(=O)c1cccc(OCc2ccccc2)c1.O=C(O)C(F)(F)F` [Compound 47, 3-(benzyloxy)-N-carbamimidoylbenzamide 2,2,2-trifluoroacetate], the MIC in experiment [1] lay in the range of 32 to 100 µg/mL; in experiment [2], 10 to 32 µg/mL.
